According to patent publication US20160220582A1, “COMBINATION OF LUPEOL ACETATE AND CURCUMIN USED FOR THE TREATMENT OR PREVENTION OF ACTIVATED OSTEOCLAST PRECURSOR ASSOCIATED DISORDERS” (priority 2015, published 2016):

Tests used:
[1] = Body weight tracking in CIA mice; format: in vivo
Method: Eight-week-old DBA/1J mice (purchased from Jackson lab, ME, USA and housed in the Animal center of National Yang Ming University under pathogen-free conditions according to the Institutional Animal Care and Committee guidelines) were used. 100 μl of arthritis-inducing adjuvant (prepared by mixing Complete Freund's Adjuvant (5 mg/ml heat-killed M. tuberculosis in incomplete Freund's Adjuvant) (Chondrex, WA, USA) with equal volume of bovine type II collagen (2 mg/ml solution in 0.05 M acetic acid) (Chondrex, WA, USA)) is injected into the dermis of tail (intra-dermal, i.d.) using a 30 G syringe; and a 50 μl second dose of same ingredients is injected in the same way at an interval of 21 days. The symptoms are produced at about six days after the second dose injection, with an induction rate of 100%. The CIA mice were established and treated with LA 25 mg/kg alone, LA 50 mg/kg alone, Cur 50 mg/kg alone and LA 25 mg/kg+Cur 50 mg/kg after second immunization once per day. Using animals treated with deionized distilled water (ddH2O) containing 0.1% dimethyl sulfoxide (DMSO, Sigma, USA) as the normal mice group. Signs of arthritis were monitored until Day 43.

[2] = test system: collagen-induced arthritis (CIA) mice; test: Histopathology of joints (H & E stain) in CIA mice; format: in vivo, DBA/1J mice; settings: day 43
Excerpt: To investigate the therapeutic efficacy of LA combined with curcumin on the histological damage in CIA mice, the mice were scarified on day 43 after arthritis induction. The joints of four limb of each mouse were excised and fixed with paraformaldehyde then embedded by paraffin and sectioned. Slides were stained with haematoxylin and eosin (H & E), and were observed under microscope.

arthritis = settings: mice; cited from earlier work
[3] = clinical application; cited from earlier work
[4] = test system: collagen-induced arthritis (CIA) mice; test: Micro-CT bone density of femur in CIA mice; format: in vivo, DBA/1J mice; settings: day 32, 39 and 43
Method: Micro-CT images were acquired from the Tri-Modality FLEX Triumph™ Pre-Clinical Imaging System (Gamma MedicaIdeas; Northridge, Calif.). The ROI was analyzed visually in three different slices: transverse, coronal, and sagittal. Individual ROI was used to create 3D representations of the bones of interest. For each specific bone ROI, the total number of pixels and mean pixel intensity across all slices were used to measure bone volume and density.

[5] = test system: collagen-induced arthritis (CIA) mice; test: 18F-FDG PET of joints in CIA mice; format: in vivo, DBA/1J mice
Excerpt: Apart from blood analysis, current clinical diagnosis will also use X-ray as an evaluation basis. Since X-ray image can only diagnose rheumatoid arthritis when the bone has been damaged severely at late stage, it could not be an effective evaluation tool. ^18F-FDG can be used as a tracer to observe and evaluate its accumulation during rheumatoid arthritis.
Repeated ^18F-FDG PET in vivo determination of disease severity in knee joints and paws on 20, 25, 32, 39 and 43 days after arthritis induction. Mice were anesthetized using 1-3% isoflurane and were intravenous injected with 0.5 mCi/100 μl (18.5 MBq) of ^18F-FDG 40 min before images acquisition. The emission scans were performed using an animal micro/PET scan (Tri-Modality FLEX Triumph™ Pre-Clinical Imaging System). All images were acquired for 40 min and reconstructed by software supplied by the manufacturer. The ROIs were selected, and the accumulation of ^18F-FDG of each ROI was further analyzed by Amide software.

NF-κB = test: Ex vivo electrophoretic mobility shift assay (EMSA); format: in vivo, DBA/1J mice
Method: The LightShift Chemiluminescent EMSA kit (Pierce, Rockford, Ill., USA) was used in the analysis for NF-κB/DNA binding activity. Nuclear extracts were incubated with the biotin labeled DNA probes at room temperature for 20 minutes. The separated DNA/protein complexes from the free oligonucleotide on 10% polyacrylamide gel were transferred to a nylon membrane. The nylon membrane was immersed in ECL (Pierce, Rockford, Ill., USA) and reacted to emit cold light (luminescence), and then exposed to the film for the observation of NF-κB activity. Using IMAGE J software (National Institutes of Health), the obtained images were quantified to blackening degree; the blackening degree of the protein to be observed is divided by the value obtained in the control group to compare the differences of each group in the expression level of nuclear proteins.

rheumatoid arthritis = settings: mice; high doses (100 mg/kg, 12 days) necessary; US 20120177754; cited from earlier work
[6] = test system: inflammatory condition induced by carrageenan; settings: mice; Lucetti et al. 2010; cited from earlier work
[7] = test system: collagen-induced arthritis (CIA) mice; test: Ex vivo Western blotting of leg proteins of CIA mice; format: in vivo, DBA/1J mice; settings: day 32
Method: The mice were sacrificed by cervical dislocation on the 32nd day of the animal experiment. The whole leg of mouse was removed, and the leg tissue was ground by adding an appropriate amount of lysis buffer (tissue protein extraction reagent, T-PER, Pierce Protein Biology Products, IL, USA), centrifuged at 15,000 rpm for 20 minutes, and the supernatant is taken as the sample for each group.
Mice were sacrificed at the peak of arthritis (on day 32), the protein extraction was isolated from legs of each group.

RAW 264.7 cells = test: MTT cell viability assay; settings: RAW264.7, 24 h; LA 10-80 μM, Cur 2.5-10 μM, 10 μM Cur+10-80 μM LA
Method: RAW 264.7 cells (a mouse macrophage cell line) were treated with different concentrations of lupeol acetate (10, 20, 40, 80 μM), curcumin (2.5, 5, 7.5, 10 μM) and combination (10 μM Cur+10 μM LA, 10 μM Cur+20 μM LA, 10 μM Cur+40 μM LA, 10 μM Cur+80 μM LA) for 24 h.
5×10^4 RAW264.7 cells/well were seeded in 96-well culture dishes, and treated with directed concentration of lupeol acetate (LA), curcumin (Cur) and combination for 24 hours after the 24-hr attachment. After removing the culture medium, 100 μl of 0.5 mg/ml MTT solution was added, and the cells were incubated at 37° C. for 4 hours. The mitochondrial enzyme (succinate dehydrogenase, SDH) in living cells will react with tetrazolium bromide in the MTT solution and form formazan blue-purple crystals. The MTT solution was removed and 200 μl DMSO was added to dissolve the blue-purple crystal, and then the O.D. (optical density) value was read under wavelength of 570 nm with an ELISA reader (TECAN Sunrise, USA). The relative cell viability is calculated by comparing the absorbance value of drug treated group with that of the control group (setting the value of control group as 100%).

| Molecule | tolerability / general toxicity ([1]; mouse, in vivo) | histopathology of joints: immune cell infiltration and cartilage destruction ([2]; 50 mg/kg) | occurrence of inflammation and progression of arthritis (arthritis) | bioavailability [3] | bone density of femur vs CIA mice [4] | 18F-FDG accumulation in knee and tarsal joint / leg swelling ([5]; 50 mg/kg alone) | tolerability / general toxicity ([1]; CIA mice, throughout the experimental period) | histopathology of joints: immune cell infiltration and cartilage destruction ([2]; 25 mg/kg) | activation of NF-κB (NF-κB; LA25 (25 mg/kg)) | activation of NF-κB (NF-κB; LA50 (50 mg/kg)) | inhibiting inflammation and treatment of rheumatoid arthritis (rheumatoid arthritis) | inflammatory condition induced by carrageenan [6] | arthritis-related proteins ([7]; LA25 (25 mg/kg)) | arthritis-related proteins ([7]; LA50 (50 mg/kg)) | cytotoxic effects, cell viability (MTT) (RAW 264.7 cells) | 18F-FDG accumulation in knee and tarsal joint / leg swelling ([5]; 25 mg/kg alone) |
| --- | --- | --- | --- | --- | --- | --- | --- | --- | --- | --- | --- | --- | --- | --- | --- | --- |
| COc1cc(/C=C/C(=O)CC(=O)/C=C/c2ccc(O)c(OC)c2)ccc1O [Cur, curcumin] | well-tolerated | moderate immune cell infiltration and cartilage destruction | inhibit | poor bioavailability | significantly higher | still have leg swelling on one side |  |  |  |  |  |  |  |  |  |  |
| lupeol acetate [LA] |  | no inflammation and cartilage destruction |  |  | significantly higher |  | well-tolerated | moderate immune cell infiltration and cartilage destruction | significantly suppressed | significantly suppressed | significant therapeutic effect | effectively mitigate | improvement | improvement | no cytotoxic effects | still have leg swelling on one side |
